Patent US20090220435A1, “TIGHT JUNCTION MODULATING PEPTIDE COMPONENTS FOR ENHANCING MUCOSAL DELIVERY OF THERAPEUTIC AGENTS” (priority 2005, published 2009)
Read-outs that look alike come from different tables or passages of the source. Non-standard residues stand in square brackets, D forms with d. Residues, ends and D or L forms follow the SMILES beside them.

What was measured:
[1] = system: EpiAirway™ human-derived tracheal/bronchial epithelial cells; assay: Transepithelial electrical resistance (TER) across EpiAirway epithelial cell layer; type: cell-based; settings: for Relative TER Decrease: relative to PN159 = 1.0; for TER reduction (highest within the concentration range tested): EpiAirway epithelial cells; for TER(x)/TER(159) +/− SEM: ratio to PN159
[2] = system: EpiAirway™ human-derived tracheal/bronchial epithelial cells; assay: Cytotoxicity (LDH assay); type: cell-based
Procedure: The amount of cell death was assayed by measuring the loss of lactate dehydrogenase (LDH) from the cells using a CytoTox 96 Cytoxicity Assay Kit (Promega Corp., Madison, Wis.). Fifty microliters of sample was loaded into a 96-well assay plates. Fresh, cell-free culture medium was used as a blank. 50 μl of substrate solution was added to each well and the plates incubated for 30 minutes at room temperature in the dark. Following incubation, 50 μl of stop solution was added to each well and the plates read on an optical density plate reader at 490 nm.
The amount of cell death will be assayed by measuring the loss of lactate dehydrogenase (LDH) from the cells using a CytoTox 96 Cytotoxicity Assay Kit (Promega Corp., Madison, Wis.). Fifty microliters of sample will be loaded into a 96-well assay plates. Fresh, cell-free culture medium will be used as a blank. Fifty microliters of substrate solution will be added to each well and the plates incubated for 30 minutes at room temperature in the dark. Following incubation, 50 μl of stop solution will be added to each well and the plates read on an optical density plate reader at 490 nm. The measurement of LDH release into the basolateral media indicates relative cytotoxicity of the samples. One hundred percent lysis of control inserts with 0.3% Octylphenolpoly(ethyleneglycolether)×(TritonX-100) allows LDH values to be expressed as percentage of total lysis.
In some embodiments, The amount of cell death was assayed by measuring the release of lactate dehydrogenase (LDH) from the cells into the apical medium using a CytoTox 96 Cytotoxicity Assay Kit (Promega Corp., Madison, Wis.). One percent Octylphenolpoly (ethyleneglycolether)×(Triton X-100™) diluted in phosphate buffered saline (PBS) causes 100% lysis in cultured cells and served herein as a positive control for the LDH assay. Following the one hour incubation period with a test formulation (refer to Table 24 of Example 25 for details of test formulations), the total liquid volume of each insert was brought to a final volume of 200 μl with culture medium. The apical medium was then mixed by pipetting four times with a multichannel pipette set to a 100 μl volume. After mixing, a 100 μl sample from the apical side of each insert was transferred to a new 96-well plate. The apical media samples were sealed with a plate sealer and stored at room temperature for same day analysis or stored overnight at 4° C. for analysis the next day. To measure LDH levels, 5 μl of the 100 μl apical media sample was diluted in 45 μl DPBS in a new 96-well plate. Fresh, cell-free culture medium will be used as a blank. Fifty microliters of substrate solution was added to each well and incubated for 30 minutes at room temperature away from direct light. Following the 30 minute incubation, 50 μl of stop solution was added to each well. Optical density (OD) was measured at 490 nm with a uQuant absorbance plate reader from Biotek Instruments. The measurement of LDH release into the apical media indicates relative cytotoxicity of the samples. Percent cytotoxicity for each test formulation was calculated by subtracting the measured absorbance of the PBS control (basal level of LDH release) from the measured absorbance of the individual test formulation and then dividing that value by the measured absorbance for the 1% Triton X-100™ positive control, multiplied by 100.
An LDH assay was used to assess the cytotoxicity of the treatments. The LDH level was determined by CytoTox96 Non-Radioactive Cytotoxic Assay (Promega, Madison, Wis.) following the manufacturer's protocol. For basal-lateral LDH levels, triplicates of 50 ul of the basal medium were used to determine the LDH level. For apical LDH level, 150 ul of the diluted apical sample was removed by adding 150 ul of Epi-CM to the apical chamber, the medium was mixed by pipeting up and down, and 150 ul medium was removed and diluted 2× (for a final 8-fold dilution) for assay in triplicates of 50 ul.

[3] = 15 minute treatment at the peptide's optimal concentration
[4] = 60 minute treatment at the peptide's optimal concentration

H-RLAWRLALRALRAALRLA-NH2 [PN395]
Relative TER Decrease [1]: 0.8

H-KLAWKLALKALKAAWKLA-NH2 [PN0427]
Relative TER Decrease [1]: 1.0

H-AAVALLPAVLLALLAPRKKRRQRRRPPQ-NH2 [PN27]
TER reduction ([1]; 125 μM peptide): 81% | TER reduction ([1]; 250 μM peptide): 91% | TER reduction ([1]; 500 μM peptide): 94% | LDH15 [2, 3]: 0.0056 | LDH60 [2, 4]: 0.035

H-RKKRRQRRRPPQCAAVALLPAVLLALLAP-NH2 [PN28]
TER reduction (highest within the concentration range tested) [1]: functionally equivalent to PN27

H-KLALKLALKALKAALKLALKLA-NH2 [PN420]
TER(x)/TER(159) +/− SEM [1]: 0.77 +/− 0.05

H-LKLLKKLLKKLLKLL-NH2 [PN406]
Relative TER Decrease [1]: 0.9

H-KLALKLALKNLKAALKLA-NH2 [PN448]
Relative TER Decrease [1]: 0.4

CC(C)C[C@H](NC(=O)[C@H](CC(C)C)NC(=O)[C@@H](CCCCN)NC(=O)[C@H](CC(C)C)NC(=O)[C@H](CC(C)C)NC(=O)[C@H](CCCCN)NC(=O)[C@@H](CCCCN)NC(=O)[C@@H](CC(C)C)NC(=O)[C@H](CC(C)C)NC(=O)[C@@H](CCCCN)NC(=O)[C@H](CCCCN)NC(=O)[C@H](CC(C)C)NC(=O)[C@@H](CC(C)C)NC(=O)[C@H](CCCCN)NC(=O)[C@@H](N)CC(C)C)C(N)=O [PN407, NH2-LKlLKkLlkKLLkLL-amide] (H-LK[dL]LK[dK]L[dL][dK]KLL[dK]LL-NH2)
TER(x)/TER(159) +/− SEM [1]: 1.08 +/− 0.01 | Relative TER Decrease [1]: 1.1

H-KLAAALLKKAKKLAAALL-NH2 [PN441]
TER(x)/TER(159) +/− SEM [1]: 0.54 +/− 0.04

CC(C)C[C@H](NC(=O)[C@H](C)NC(=O)[C@H](CCCCN)NC(=O)[C@H](CC(C)C)NC(=O)[C@H](CC(N)=O)NC(=O)[C@H](CC(C)C)NC(=O)[C@H](CCCCN)NC(=O)[C@H](CC(C)C)NC(=O)[C@@H](CCCCN)NC(=O)[C@H](CC(C)C)NC(=O)[C@H](CCCCN)NC(=O)[C@H](CC(C)C)NC(=O)[C@H](C)NC(=O)[C@H](C)NC(=O)[C@H](CCCCN)NC(=O)[C@H](CC(C)C)NC(=O)[C@H](C)NC(=O)[C@H](CCCCN)NC(=O)[C@H](CC(C)C)NC(=O)[C@H](C)NC(=O)[C@H](CCCCN)NC(=O)[C@H](CC(C)C)NC(=O)[C@H](C)NC(=O)[C@H](CC(C)C)NC(=O)[C@@H](N)CCCCN)C(N)=O [PN422] (H-KLALKALKALKAALKL[dK]LKLNLKAL-NH2)
TER(x)/TER(159) +/− SEM [1]: 0.47 +/− 0.07

H-KALAALLKKLAKLLAALK-NH2 [PN444]
TER(x)/TER(159) +/− SEM [1]: 0.82 +/− 0.05

CC(C)C[C@@H](NC(=O)[C@H](N)CCCCN)C(=O)N[C@H](C)C(=O)N[C@H](CC(C)C)C(=O)N[C@H](CCCCN)C(=O)N[C@H](CC(C)C)C(=O)N[C@H](C)C(=O)N[C@H](CC(C)C)C(=O)N[C@H](CCCCN)C(=O)N[C@H](C)C(=O)N[C@H](CC(C)C)C(=O)N[C@H](CCCCN)C(=O)N[C@H](C)C(=O)N[C@H](C)C(=O)N[C@H](CC(C)C)C(=O)N[C@H](CCCCN)C(=O)N[C@H](CC(C)C)C(=O)N[C@H](C)C(N)=O [PN393, NH2-klalklalkalkaalkla-amide]
TER(x)/TER(159) +/− SEM [1]: 1.06 +/− 0.00

H-KLALKLALKALKAALK-NH2 [PN418]
TER(x)/TER(159) +/− SEM [1]: 1.05 +/− 0.05

H-LKTLATALTKLAKTLTTL-NH2 [PN443]
Relative TER Decrease [1]: 0.3

Octylphenolpoly (ethyleneglycolether)×(Triton X-100™) [Triton X-100 ™, reference compound]
% Triton-X LDH Release ([2]; 1% Triton X-100, positive control): 100%

H-KALKLKAALALLAKLKLA-NH2 [PN424]
TER(x)/TER(159) +/− SEM [1]: 0.59 +/− 0.07

H-KLALKLALKALKAALKLALKLALK-NH2 [PN421]
TER(x)/TER(159) +/− SEM [1]: 0.74 +/− 0.11

H-KLALKLALKALKAALKLALK-NH2 [PN419]
TER(x)/TER(159) +/− SEM [1]: 1.23 +/− 0.01

CC(C)C[C@@H](NC(=O)[C@@H](C)N)C(=O)N[C@H](CCCCN)C(=O)N[C@H](CC(C)C)C(=O)N[C@H](C)C(=O)N[C@H](C)C(=O)N[C@H](CCCCN)C(=O)N[C@H](CC(C)C)C(=O)N[C@H](C)C(=O)N[C@H](CCCCN)C(=O)N[C@H](CC(C)C)C(=O)N[C@H](C)C(=O)N[C@H](CC(C)C)C(=O)N[C@H](CCCCN)C(=O)N[C@H](CC(C)C)C(=O)N[C@H](C)C(=O)N[C@H](CC(C)C)C(=O)N[C@H](CCCCN)C(N)=O [PN408, NH2-alklaaklaklalklalk-amide]
TER(x)/TER(159) +/− SEM [1]: 1.05 +/− 0.01

H-KALAALLKKAAKLLAALK-NH2 [PN442]
TER(x)/TER(159) +/− SEM [1]: 0.93 +/− 0.03

CC[C@H](C)[C@H](NC(=O)[C@H](CCCCN)NC(=O)[C@@H](NC(=O)[C@H](CCC(N)=O)NC(=O)[C@@H](N)CCCNC(=N)N)[C@@H](C)CC)C(=O)N[C@@H](Cc1c[nH]c2ccccc12)C(=O)N[C@@H](Cc1ccccc1)C(=O)N[C@@H](CCC(N)=O)C(=O)N[C@@H](CC(N)=O)C(=O)N[C@@H](CCCNC(=N)N)C(=O)N[C@@H](CCCNC(=N)N)C(=O)N[C@@H](CCSC)C(=O)N[C@@H](CCCCN)C(=O)N[C@@H](Cc1c[nH]c2ccccc12)C(=O)N[C@@H](CCCCN)C(=O)N[C@@H](CCCCN)C(N)=O [PN58]
TER reduction ([1]; 250 μM peptide): −6% | TER reduction ([1]; 500 μM peptide): 64% | TER reduction ([1]; 1000 μM peptide): 88% | LDH15 [2, 3]: 0.0007 | LDH60 [2, 4]: 0.02

H-KLAWKLALKALKAALKLA-NH2 [PN0425]
Relative TER Decrease [1]: 1.0

H-KLAWKLAWKALKAAWKLA-NH2 [PN0428]
Relative TER Decrease [1]: 0.7

H-KETWWETWWTEWSQPGRKKRRQRRRRPPQ-NH2 [PN183]
TER reduction ([1]; 100 μM peptide): 25% | TER reduction ([1]; 500 μM peptide): 41% | TER reduction ([1]; 1000 μM peptide): 55% | TER reduction (highest within the concentration range tested) [1]: 55%

H-KLWSAWPSLWSSLWKP-NH2 [PN228]
TER reduction ([1]; 100 μM peptide): 9% | TER reduction ([1]; 500 μM peptide): 82% | LDH15 [2]: 0.0063 | LDH60 [2]: 0.046
